From patent US20070203066A1, “Compositions and methods for inhibiting cellular proliferation” (priority 2005, published 2007) come the findings set out here.

Non-standard residues stand in square brackets, D forms with d. Primed or numbered codes have the meaning given here. No end group written: not given here. Ida = iminodiacetic acid linker, its two carboxyls bind the Lys side-chain amines of two peptides, giving a homodimer; Ida(3) = iminodiacetic acid linker, Lys side-chain amines bound to its two carboxyl groups; Ida(4) = iminodiacetic acid linker (dimerization linker bound to lysine side chain); Ida″ = iminodiacetic acid linker bound to the Lys side-chain amine, forming a dimer; ATA = not defined here; GP3 = not defined here; Ahx = NCCCCCC(=O)O

Usually IC50 stands for the concentration at which inhibition is half-maximal.

The subject of the first assay is HUVECs. It is filed as cell-based. The conditions noted are these: 48 h. The procedure: HUVECs were routinely cultured to near confluency in EGM media (Clontech, Mountain View, California). The cells were trypsinized and plated in a 96-well plate at 5,000 cells per well per 100 μl EBM supplemented with 2% FCS and antibiotics. The cells were allowed to adhere to the plate for at least 12 hours. Then, bFGF at 10 ng/ml or VEGF at 5 ng/ml, and various concentrations of peptide, were added to the wells. The cells were cultured for 48 hours at 37 ° C. in a 5% CO2 atmosphere. Cell proliferation was determined using a bromo-deoxyuridine (BrdU) incorporation method as described by the manufacturer. Inhibition of cell proliferation was assessed by BrdU incorporation.
Compound `CC[C@H](C)[C@H](NC(=O)[C@H](C)NC(=O)[C@@H](NC(=O)[C@H](CCCNC(=N)N)NC(=O)[C@H](CCC(N)=O)NC(=O)[C@H](CCCNC(=N)N)NC(=O)[C@H](CCCNC(=N)N)NC(=O)[C@H](CCCNC(=N)N)NC(=O)[C@H](CCCNC(=N)N)NC(=O)[C@H](C)NC(C)=O)C(C)C)C(=O)N[C@@H](Cc1ccc(O)cc1)C(=O)N[C@@H](CCC(=O)O)C(=O)N[C@@H](CCCCNC(=O)CN(CC(=O)NCCCC[C@H](NC(=O)[C@H](CCC(=O)O)NC(=O)[C@H](Cc1ccc(O)cc1)NC(=O)[C@@H](NC(=O)[C@H](C)NC(=O)[C@@H](NC(=O)[C@H](CCCNC(=N)N)NC(=O)[C@H](CCC(N)=O)NC(=O)[C@H](CCCNC(=N)N)NC(=O)[C@H](CCCNC(=N)N)NC(=O)[C@H](CCCNC(=N)N)NC(=O)[C@H](CCCNC(=N)N)NC(=O)[C@H](C)NC(C)=O)C(C)C)[C@@H](C)CC)C(N)=O)C(=O)CCNC(=O)OC(C)(C)C)C(N)=O` [Peptide 346] registered an IC50 of more than 30 µM.
Compound `CC[C@@H](C)[C@@H](NC(=O)[C@@H](NC(=O)[C@H](C)NC(=O)[C@@H](NC(=O)[C@H](CCCNC(=N)N)NC(=O)[C@H](CCC(N)=O)NC(=O)[C@H](CCCNC(=N)N)NC(=O)[C@H](CCCNC(=N)N)NC(=O)[C@H](CCCNC(=N)N)NC(=O)[C@H](CCCNC(=N)N)NC(=O)[C@H](C)NC(C)=O)C(C)C)[C@@H](C)CC)C(=O)N[C@@H](Cc1ccccc1)C(=O)N[C@@H](CCCCNC(=O)CN(CC(=O)NCCCC[C@H](NC(=O)[C@H](Cc1ccccc1)NC(=O)[C@H](NC(=O)[C@@H](NC(=O)[C@H](C)NC(=O)[C@@H](NC(=O)[C@H](CCCNC(=N)N)NC(=O)[C@H](CCC(N)=O)NC(=O)[C@H](CCCNC(=N)N)NC(=O)[C@H](CCCNC(=N)N)NC(=O)[C@H](CCCNC(=N)N)NC(=O)[C@H](CCCNC(=N)N)NC(=O)[C@H](C)NC(C)=O)C(C)C)[C@@H](C)CC)[C@H](C)CC)C(N)=O)C(=O)CCNC(=O)OC(C)(C)C)C(N)=O` [Peptide 254] yielded an IC50 of less than 10 µM.
The same measure, in the same setting: the figure for `CC[C@H](C)[C@H](NC(=O)[C@H](C)NC(=O)[C@@H](NC(=O)[C@H](C)NC(=O)[C@H](CCC(N)=O)NC(=O)[C@H](CCCNC(=N)N)NC(=O)[C@H](CCCNC(=N)N)NC(=O)[C@H](CCCNC(=N)N)NC(=O)[C@H](C)NC(=O)[C@H](CCCNC(=N)N)NC(C)=O)C(C)C)C(=O)N[C@@H](CC(N)=O)C(=O)N[C@@H](Cc1ccccc1)C(=O)N[C@@H](CCCCNC(=O)CN(CC(=O)NCCCC[C@H](NC(=O)[C@H](Cc1ccccc1)NC(=O)[C@H](CC(N)=O)NC(=O)[C@@H](NC(=O)[C@H](C)NC(=O)[C@@H](NC(=O)[C@H](C)NC(=O)[C@H](CCC(N)=O)NC(=O)[C@H](CCCNC(=N)N)NC(=O)[C@H](CCCNC(=N)N)NC(=O)[C@H](CCCNC(=N)N)NC(=O)[C@H](C)NC(=O)[C@H](CCCNC(=N)N)NC(C)=O)C(C)C)[C@@H](C)CC)C(N)=O)C(=O)CCNC(=O)OC(C)(C)C)C(N)=O` [Peptide 272] is less than 10 µM.
As to `CC[C@H](C)[C@H](NC(=O)[C@H](Cc1c[nH]cn1)NC(=O)[C@@H](NC(=O)[C@H](Cc1c[nH]cn1)NC(=O)[C@H](CCC(N)=O)NC(=O)[C@H](CCCNC(=N)N)NC(=O)[C@H](CCCNC(=N)N)NC(=O)[C@H](CCCNC(=N)N)NC(=O)[C@H](CCCNC(=N)N)NC(=O)[C@H](Cc1c[nH]cn1)NC(C)=O)C(C)C)C(=O)N[C@@H](Cc1ccc(O)cc1)C(=O)N[C@@H](Cc1ccccc1)C(=O)N[C@@H](CCCCNC(=O)CN(CC(=O)NCCCC[C@H](NC(=O)[C@H](Cc1ccccc1)NC(=O)[C@H](Cc1ccc(O)cc1)NC(=O)[C@@H](NC(=O)[C@H](Cc1c[nH]cn1)NC(=O)[C@@H](NC(=O)[C@H](Cc1c[nH]cn1)NC(=O)[C@H](CCC(N)=O)NC(=O)[C@H](CCCNC(=N)N)NC(=O)[C@H](CCCNC(=N)N)NC(=O)[C@H](CCCNC(=N)N)NC(=O)[C@H](CCCNC(=N)N)NC(=O)[C@H](Cc1c[nH]cn1)NC(C)=O)C(C)C)[C@@H](C)CC)C(N)=O)C(=O)CCNC(=O)OC(C)(C)C)C(N)=O` [Peptide 322], the IC50 is less than 10 µM.

The assay is the same for the next values; noted with them: HUVEC proliferation, bFGF at 10 ng/ml or VEGF at 5 ng/ml, 48 hours, BrdU incorporation; read-out: IC50 on HUVECs.
Turning to “490 (Ac-PRRRRQSVAIK(Ida″)F; also: homodimer via Ida linker on Lys11 side chain) [compound 490]”, the IC50 was in the range of 10 to 30 µM.
Still for that read-out and setting: in the case of “386 (Ac-ARRRRQNVAIYFK-NH2; not fully specified (residue 13); also: homodimer via Ida linker on Lys13 side chain, Ida amine Boc) [compound 386]” it was less than 10 µM; in that of “345 (Ac-ARRRRQRVAIYWK-NH2; not fully specified (residue 13); also: homodimer of residues 1-13 via Ida linker on Lys13 side chain) [compound 345]”, less than 10 µM; in that of “497 (Ac-PRLRRQAVAIYFK(Ida″); not fully specified (C-terminus); also: homodimer via Ida linker on Lys13 side chain) [compound 497]”, 10 to 30 µM.
For “495 (Ac-PRERRQAVAIYFK(Ida″); not fully specified (C-terminus); also: homodimer via Ida linker on Lys13 side chain) [compound 495]”, the IC50 was more than 30 µM.
On the same count and under the same terms, the figure for “104 (Ac-KTKRKRKKQRVKIIFVQNM; also: homodimer via C-terminal Lys linker) [compound 104]” is less than 10 µM; for KTKRKRKAQRVKIIFVQNM [compound 116] it is less than 10 µM.
Still for that read-out and setting: in the case of “273 (Ac-RARRRQAVAITFK-NH2; not fully specified (residue 13); also: homodimer: Lys13 side chain bound to Ida linker) [compound 273]” it was less than 10 µM; in that of “429 (Ac-ARRRRQAVAIK(Ida(4))FI; also: homodimer via Ida linker at K11) [compound 429]”, less than 10 µM.
On the same count and under the same terms, the figure for “308 (Ac-RRRRRQAVK(Ida)IIFV; also: homodimer via Ida linker on Lys9 side chain) [compound 308]” is less than 10 µM; for “392 (Ac-ARRRRQAVPIYFK; not fully specified (residue 13, C-terminus); also: homodimer of residues 1-13 via Ida linker at Lys13 side chain) [compound 392]” it is more than 30 µM.
For the compound “269 (Ac-ARRRRQRVAIEFK-NH2; not fully specified (residue 13); also: homodimer: side chain of Lys13 bound to an Ida linker) [compound 269]”, the IC50 was 10 to 30 µM.
With “446 (Ac-RRRRRQAVAIYFK(ATA); reading uncertain; also: homotrimer via Ata linker at K13) [compound 446]”, the IC50 was less than 10 µM.
Consider “128 (KTKRKRKKQRVKI[Ahx][Ahx]IF; also: dimer: C-terminus of Phe17 of each chain bound to one amino group of a Lysine linker) [compound 128]”, for which the IC50 was less than 10 µM.
Same read-out and setting: the figure for “194 (Ac-ARRRAQRVRIIF; also: dimer: C-terminal Phe bound to an amino group of a Lys linker, 2 chains per Lys) [compound 194]” is less than 10 µM.
Still for that read-out and setting: the figure for “259 (Ac-ARRRR[dQ]RVAIIFK-NH2; not fully specified (residue 13); also: homodimer via Ida linker on Lys13 side chains) [compound 259]” is less than 10 µM.
For the compound “247 (Ac-RRRRHQRVHIIF; also: homodimer: C-termini of two chains bound to the two amines of a Lys linker) [compound 247]”, the IC50 was less than 10 µM.
Still for that read-out and setting: in the case of “421 (Ac-RRRRRQAVAIKF; not fully specified (residue 11); also: homodimer of residues 1-12 via Ida linker on K11 side chain) [compound 421]” it was less than 10 µM.
On the same count and under the same terms, in the case of KTKRKRKKQRVKIAYEEVFVKNM [compound 6] it was less than 10 µM.
On the same count and under the same terms, in the case of “474 (Ac-PRRRMQAVAIYFK(Ida(3)); not fully specified (C-terminus); also: homodimer via Ida linker on Lys13 side chain) [compound 474]” it was 10 to 30 µM; in that of “438 (Ac-RRRRNQAVAIYFK(Ida(4)); not fully specified (C-terminus); also: homodimer via Ida linker at K13) [compound 438]”, less than 10 µM.
On to “271 (Ac-ARRRRQRVAIYF; also: homodimer via Lys linker, Phe C-termini bound to the two Lys amino groups) [compound 271]”, for which the IC50 was less than 10 µM.
Still for that read-out and setting: in the case of “225 (Ac-ARRRRQRVAINFK; also: homodimer via Ida linker on side chain of Lys13) [compound 225]” it was less than 10 µM; in that of “385 (Ac-ARRRRQMVAIYFK-NH2; not fully specified (residue 13); also: homodimer via Ida linker on Lys13 side chain, Ida amine Boc) [compound 385]”, less than 10 µM.
The same measure, in the same setting: the figure for “428 (Ac-ARRRRQAVAIK(GP3)F; reading uncertain; also: homodimer via GP3 linker at K11) [compound 428]” is less than 10 µM; for RKRKKQRVKIAYEEIFVQNM [compound 21] it is more than 30 µM; for “336 (Ac-ARRRRQRVAIYFK-NH2; not fully specified (residue 13); also: homodimer via Lys13 side chain, Ida-PEG 20 kDa linker) [compound 336]” it is less than 10 µM.
“310 (Ac-RRRRRQK(Ida)VRIIFV; also: homodimer via Ida linker on Lys7 side chain) [compound 310]”: the IC50 was less than 10 µM.
